Test results taken from patent US7704995B2 (Exelixis, Inc., priority 2003, dated 2010).

What follows are compounds tested against T1, Chk1 (Homo sapiens, UniProt O14757) (assay: Chk1 kinase assay: incorporation of γ-33P ATP into immobilized myelin basic protein). Details: Table 11, Chk1 only; class symbols A-D; read-out: Chk1 IC50.
T1 construct: purchased Upstate Biotechnology
T1 sequence (O14757 1-476): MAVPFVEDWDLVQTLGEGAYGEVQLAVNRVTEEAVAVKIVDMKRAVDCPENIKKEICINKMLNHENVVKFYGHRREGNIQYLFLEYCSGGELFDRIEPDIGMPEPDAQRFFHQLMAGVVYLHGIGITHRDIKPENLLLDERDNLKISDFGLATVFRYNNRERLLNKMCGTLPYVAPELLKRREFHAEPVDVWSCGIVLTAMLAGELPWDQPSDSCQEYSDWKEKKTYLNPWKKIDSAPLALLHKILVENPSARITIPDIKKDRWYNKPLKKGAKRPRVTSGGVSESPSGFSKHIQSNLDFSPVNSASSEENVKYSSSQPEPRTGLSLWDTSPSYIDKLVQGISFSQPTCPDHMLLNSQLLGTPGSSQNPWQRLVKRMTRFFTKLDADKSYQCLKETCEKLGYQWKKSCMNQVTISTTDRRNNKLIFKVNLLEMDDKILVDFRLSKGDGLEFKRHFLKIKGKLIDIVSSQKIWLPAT
Format: biochemical
Procedure, shortened: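 Radiometric filter-free format: Chk1 10 nM, 10 μM ATP; Chk2 20 nM, 30 μM ATP; γ-33P ATP tracer; immobilized MBP substrate; Hepes pH 7.6, 10 mM MgCl2, 1 mM DTT; 1 h RT; 1% DMSO. Scintillation counting of washed plates. IC50/Ki from curve fit.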

| SMILES | IC50 |
| --- | --- |
| Nc1ncc(-c2cccc(C(=O)NCc3c(F)ccc(Cl)c3F)c2)nc1C(=O)N[C@H]1CCCCNC1 [Example 1019, 3-amino-N-[(3S)-azepan-3-yl]-6-[3-({[(3-chloro-2,6-difluorophenyl)methyl]amino}carbonyl)phenyl]pyrazine-2-carboxamide] | < 50 nM |
| Nc1ncc(-c2cccc(CN[C@H]3CCc4ccccc43)c2)nc1C(=O)N[C@H]1CN2CCC1CC2 [Example 863, 3-amino-N-[(3R)-1-azabicyclo[2.2.2]oct-3-yl]-6(3-{[(1S)-2,3-dihydro-1H-inden-1-ylamino]methyl}phenyl)pyrazine-2-carboxamide] | 50 to 1000 nM |
| Cc1ccc(CNC(=O)c2cccc(-c3cnc(N)c(C(=O)N[C@H]4CCCNC4)n3)c2)cc1F [Example 1018, 3-amino-6-[3-({[(3-fluoro-4-methylphenyl)methyl]amino}carbonyl)phenyl]-N-[(3S)-piperidin-3-yl]pyrazine-2-carboxamide] | < 50 nM |
| Nc1ncc(-c2cccc(CNC(=O)Nc3ccc4ccccc4c3)c2)nc1C(=O)N[C@H]1CCCNC1 [Example 896] | < 50 nM |

Next, values leading:

| IC50 | SMILES |
| --- | --- |
| 1000 to 10000 nM | Nc1ncc(-c2cccc(C(=O)N[C@H]3CCc4ccccc43)c2)nc1-c1ncn(-c2ccncc2)n1 [Example 813, 3-[5-amino-6-(1-pyridin-4-yl-1H-1,2,4-triazol-3-yl)pyrazin-2-yl]-N-[(1S)-2,3-dihydro-1H-inden-1-yl]benzamide] |
| 50 to 1000 nM | Nc1ncc(-c2cccc(C(=O)NCCN3CCOCC3)c2)nc1C(=O)N[C@H]1CCCNC1 [Example 926, 3-amino-6-(3-{[(2-morpholin-4-ylethyl)amino]carbonyl}phenyl)-N-[(3S)-piperidin-3-yl]pyrazine-2-carboxamide] |
| < 50 nM | Nc1ncc(-c2cccc(CNS(=O)(=O)c3ccsc3)c2)nc1C(=O)N[C@H]1CCCNC1 [Example 954, 3-amino-N-[(3S)-piperidin-3-yl]-6-(3-{[(3-thienylsulfonyl)amino]methyl}phenyl)pyrazine-2-carboxamide] |
| < 50 nM | Cc1ccc(C)c(CNC(=O)c2cccc(-c3cnc(N)c(C(=O)N[C@H]4CCCNC4)n3)c2)c1 [Example 1036, 3-amino-6-[3-({[(2,5-dimethylphenyl)methyl]amino}carbonyl)phenyl]-N-[(3S)-piperidin-3-yl]pyrazine-2-carboxamide] |
| 50 to 1000 nM | Nc1ncc(-c2cccc(CNS(=O)(=O)c3ccc(OC(F)(F)F)cc3)c2)nc1C(=O)N[C@H]1CCCNC1 [Example 916, 3-amino-N-[(3S)-piperidin-3-yl]-6-(3-{[({4-[(trifluoromethyl)oxy]phenyl}sulfonyl)amino]methyl}phenyl)pyrazine-2-carboxamide] |

Same assay, conditions: Table 11; Chk1 only; read-out: Chk1 IC50

| SMILES | IC50 |
| --- | --- |
| CNC(=O)c1nc(-c2ccc3ccccc3c2)cnc1N [Example 498, 3-amino-N-methyl-6-naphthalen-2-ylpyrazine-2-carboxamide] | 50 to 1000 nM |
| Nc1ncc(-c2cccc(C(=O)NCc3ccccc3)c2)nc1C(=O)N1CCN(Cc2ccccc2)CC1 [Example 575, 3-(5-amino-6-{[4-(phenylmethyl)piperazin-1-yl]carbonyl}pyrazin-2-yl)-N-(phenylmethyl)benzamide] | ≥ 10000 nM |
| COc1ccc(C(=O)c2nc(-c3cccc(C(=O)NCc4ccccc4)c3)cnc2N)c(OC)c1 [Example 588, 3-(5-amino-6-{[2,4-bis(methyloxy)phenyl]carbonyl}pyrazin-2-yl)-N-(phenylmethyl)benzamide] | ≥ 10000 nM |
| Nc1ncc(-c2cccc(CN[C@H]3CCc4ccccc43)c2)nc1-c1nc(-c2ccccc2)n[nH]1 [Example 557, 5-(3-{[(1S)-2,3-dihydro-1H-inden-1-ylamino]methyl}phenyl)-3-(3-phenyl-1H-1,2,4-triazol-5-yl)pyrazin-2-amine] | < 50 nM |
| COc1ccc(CNC(=O)c2cccc(-c3cnc(N)c(C(=O)N[C@H]4CCNC4)n3)c2)cc1 [Example 743, 3-amino-6-{3-[({[4-(methyloxy)phenyl]methyl}amino)carbonyl]phenyl}-N-[(3S)-pyrrolidin-3-yl]pyrazine-2-carboxamide] | 50 to 1000 nM |
| CC(C)(C)OC(=O)N1CC[C@H](NC(=O)c2nc(-c3cccc(C(=O)NCc4ccc(OC(F)(F)F)cc4)c3)cnc2N)C1 [Example 739, 1,1-dimethylethyl (3S)-3-({[3-amino-6-(3-{[({4-[(trifluoromethyl)oxy]phenyl}methyl)amino]carbonyl}phenyl)pyrazin-2-yl]carbonyl}amino)pyrrolidine-1-carboxylate] | 50 to 1000 nM |
| Nc1ncc(-c2cccc(CN[C@H]3CCc4ccccc43)c2)nc1C(=O)NCc1ccccc1 [Example 544, 3-amino-6-(3-{[(1S)-2,3-dihydro-1H-inden-1-ylamino]methyl}phenyl)-N-(phenylmethyl)pyrazine-2-carboxamide] | 1000 to 10000 nM |

Next, values leading:

| IC50 | SMILES |
| --- | --- |
| < 50 nM | CNC(=O)c1nc(-c2cccc(CNC3CCc4cc(-c5ccsc5)ccc43)c2)cnc1N (centres unmarked) [Example 481, 3-amino-N-methyl-6-[3-({[5-(3-thienyl)-2,3-dihydro-1H-inden-1-yl]amino}methyl)phenyl]pyrazine-2-carboxamide] |
| 50 to 1000 nM | CNC(=O)c1nc(-c2cccc(CN[C@H]3CCN(Cc4ccccc4)C3)c2)cnc1N [Example 437, 3-amino-N-methyl-6-[3-({[(3S)-1-(phenylmethyl)pyrrolidin-3-yl]amino}methyl)phenyl]pyrazine-2-carboxamide] |
| < 50 nM | CNC(=O)c1nc(-c2cccc(CN[C@H]3Cc4ccc(Br)cc4C3)c2)cnc1N [Example 465, 3-amino-6-[3-({[(2S)-5-bromo-2,3-dihydro-1H-inden-2-yl]amino}methyl)phenyl]-N-methylpyrazine-2-carboxamide] |
| ≥ 10000 nM | COC(=O)C1CCCN(C(=O)c2nc(-c3cccc(C(=O)NCc4ccccc4)c3)cnc2N)C1 (centres unmarked) [Example 591, methyl 1-{[3-amino-6-(3-{[(phenylmethyl)amino]carbonyl}phenyl)pyrazin-2-yl]carbonyl}piperidine-3-carboxylate] |
| ≥ 10000 nM | CC(C)(C)OC(=O)N1CCC[C@@H]1CN1CC[C@H](NC(=O)c2nc(-c3cccc(C(=O)NCc4ccccc4)c3)cnc2N)C1 [Example 688, 1,1-dimethylethyl (2R)-2-{[(3S)-3-({[3-amino-6-(3-{[(phenylmethyl)amino]carbonyl}phenyl)pyrazin-2-yl]carbonyl}amino)pyrrolidin-1-yl]methyl}pyrrolidine-1-carboxylate] |
| 50 to 1000 nM | CNC(=O)c1nc(-c2cccc(CNC3CCc4c(F)ccc(Br)c43)c2)cnc1N (centres unmarked) [Example 484, 3-amino-6-(3-{[(7-bromo-4-fluoro-2,3-dihydro-1H-inden-1-yl)amino]methyl}phenyl)-N-methylpyrazine-2-carboxamide] |

Same assay, conditions: read-out: Chk1 IC50

| SMILES | IC50 |
| --- | --- |
| CNC(=O)c1nc(-c2cccc(-c3nnn[nH]3)c2)cnc1N [Example 83, 3-amino-N-methyl-6-[3-(1H-tetrazol-5-yl)phenyl]pyrazine-2-carboxamide] | 1000 to 10000 nM |
| CNC(=O)c1nc(-c2cccc(C(=O)NCC3CCCO3)c2)cnc1N (centres unmarked) [Example 170, 3-amino-N-methyl-6-(3-{[(tetrahydrofuran-2-ylmethyl)amino]carbonyl}phenyl)pyrazine-2-carboxamide] | 1000 to 10000 nM |

Results, then the compound that gave them:

| IC50 | SMILES |
| --- | --- |
| ≥ 10000 nM | CCCNc1ncc(-c2ccccc2)nc1C(N)=O [Example 40, 6-phenyl-3-(propylamino)pyrazine-2-carboxamide] |
| 50 to 1000 nM | CNC(=O)c1nc(-c2cccc(C(=O)N[C@@H]3CCN(Cc4ccccc4)C3)c2)cnc1N [Example 197, 3-amino-N-methyl-6-[3-({[(3R)-1-(phenylmethyl)pyrrolidin-3-yl]amino}carbonyl)phenyl]pyrazine-2-carboxamide] |
| 50 to 1000 nM | CNC(=O)c1nc(-c2cccc(NC(=O)Cc3ccccc3)c2)cnc1N [Example 158, 3-amino-N-methyl-6-{3-[(phenylacetyl)amino]phenyl}pyrazine-2-carboxamide] |
| 50 to 1000 nM | CNC(=O)c1nc(-c2cncc(C(=O)NCc3ccc4c(c3)OCCO4)c2)cnc1N [Example 411, 3-amino-6-(5-{[(2,3-dihydro-1,4-benzodioxin-6-ylmethyl)amino]carbonyl}pyridin-3-yl)-N-methylpyrazine-2-carboxamide] |
| 50 to 1000 nM | CNC(=O)c1nc(-c2cccc(C(=O)NCc3c(F)ccc(Cl)c3F)c2)cnc1N [Example 282, 3-amino-6-[3-({[(3-chloro-2,6-difluorophenyl)methyl]amino}carbonyl)phenyl]-N-methylpyrazine-2-carboxamide] |
| 50 to 1000 nM | CNC(=O)c1nc(-c2cccc(COCc3ccccc3)c2)cnc1N [Example 314, 3-amino-N-methyl-6-(3-{[(phenylmethyl)oxy]methyl}phenyl)pyrazine-2-carboxamide] |
| ≥ 10000 nM | Nc1ncc(-c2ccccc2)nc1C(=O)N[C@H]1CCc2ccccc21 [Example 5, 3-amino-N-[(1S)-2,3-dihydro-1H-inden-1-yl]-6-phenylpyrazine-2-carboxamide] |
| < 50 nM | CNC(=O)c1nc(-c2cccc(NC(=O)Cc3ccc(Cl)cc3Cl)c2)cnc1N [Example 209, 3-amino-6-(3-{[(2,4-dichlorophenyl)acetyl]amino}phenyl)-N-methylpyrazine-2-carboxamide] |
